Data as given in US20100324067A1, “TETRACYCLIC DIPYRANO-COUMARIN COMPOUNDS WITH ANTI-HIV AND ANTI-MYCOBACTERIUM TUBERCULOSIS ACTIVITIES” (priority 2007, published 2010).
Values after ≈ are worked out from the molar mass of the structure shown. Like-named read-outs stand apart in the source and are kept apart here.

Columns and labels:
[1] = tested on: Mycobacterium tuberculosis H37Rv (ATCC 27294); assay: Microplate Alamar Blue Assay (MABA) in BACTEC 12B medium (TAACF screen); type: cell-based
HIV-1 = assay: Inhibitory activity against HIV-1 (literature method, Chen et al. J Virol 1997); details: for inhibition at 1 µM: Human immunodeficiency virus 1, read-out: Anti-HIV (%, 1.0 μM)
Description: Inhibitory activity of the coumarin derivatives of the present invention against HIV-1.
Inhibitory activity of the compounds against HIV-1 is assayed using the literature method. The experimental conditions, procedures, reagents and so on of the experiment are referred to the reference of “ZHIWEI CHEN, PEI ZHOU, DAVID D. HO, et al. Genetically divergent strains of simian immuno-deficiency virus use CCR5 as a coreceptor for entry. Journal of Virology, 1997, 71(4): 2705-2714”.

[2] = read-out: anti-TB active compound (MIC90 less than 10 μg/mL), classification

Compound | IC50 ([1]; MABA, H37Rv, read-out: IC50) [µg/mL] | MIC90 ([1]; MABA, H37Rv, read-out: MIC90) [µg/mL] | melting point [°C] | MIC90 [1, 2] [µg/mL] | other results
CC1CC(=O)c2c(c3c(c4c5c(c(=O)oc24)CCC5)OC(C)(C)C=C3)O1 (stereo not shown) [Example 26, 6,6,10-trimethyl-3,4-cyclopentyl-2H,6H,12H-benzo[1,2-b:3,4-b′:5,6-b″]-tripyranyl-2,12-dione] | 23.9 (≈ 67.8 µM) | 43.6 (≈ 124 µM) | 108 to 109 |  | 
CCCc1cc(=O)oc2c3c(c4c(c12)OC(C)(C)C=C4)OC(CCC)CC3=O (stereo not shown) [Example 14, 6,6-dimethyl-4,10-di-n-propyl-2H,6H,12H-benzo[1,2-b:3,4-b′:5,6-b″]-tripyranyl-2,12-dione] |  | 6.44 (≈ 16.8 µM) |  | < 10 | IC50 [1]: 5.72 µg/mL (≈ 15 µM); EC50 (HIV-1; Human immunodeficiency virus 1): 32.5 nM; inhibition at 1 µM (HIV-1): 61.9%; anti-HIV-1 activity in vitro compared to (+)-calanolide A (HIV-1; in words): much higher inhibitory activity; therapeutic index, in words (HIV-1; in words): high therapeutic index; Therapeutic index (TI) = 50% cytotoxicity doses/50% effective dose (HIV-1; value in brackets after EC50): 102-308
CCCc1c(F)c(=O)oc2c3c(c4c(c12)OC(CC)C=C4)OC(C)CC3=O (stereo not shown) [Example 56, 10-methyl-4-n-propyl-6-ethyl-3-fluoro-2H,6H,12H-benzo[1,2-b:3,4-b′:5,6-b″]-tripyrany 1-2,12-dione] | 62.3 (≈ 167 µM) | > 100 | 147 to 149 |  | 
CCCC1C=Cc2c3c(c4oc(=O)c(F)c(CC)c4c2O1)C(=O)CC(C)O3 (stereo not shown) [Example 39, 10-methyl-4-ethyl-6-n-propyl-3-fluoro-2H,6H,12H-benzo[1,2-b:3,4-b′:5,6-b″]-tripyranyl-2,12-dione] | 5.09 (≈ 13.7 µM) | 9.94 (≈ 26.7 µM) | 151 to 153 | < 10 | 
CCCc1cc(=O)oc2c3c(c4c(c12)OC(C)(C)C=C4)OC(c1ccccc1)CC3=O (stereo not shown) [Example 16, 6,6-dimethyl-4-n-propyl-10-phenyl-2H,6H,12H-benzo[1,2-b:3,4-b′:5,6-b″]-tripyranyl-2,12-dione] |  | > 100 |  |  | IC50 [1]: 2.91 µg/mL (≈ 6.99 µM); inhibition at 1 µM (HIV-1): 62.7%
CCc1c(F)c(=O)oc2c3c(c4c(c12)OC(CC)C=C4)OC(C)CC3=O (stereo not shown) [Example 55, 10-methyl-4,6-diethyl-3-fluoro-2H,6H,12H-benzo[1,2-b:3,4-b′:5,6-b″]-tripyranyl-2,12-dione] | < 0.2 | 1.07 (≈ 2.99 µM) | 144 to 146 | < 10 | 
CCCc1cc(=O)oc2c3c(c4c(c12)OC(c1ccccc1)C=C4)OCC(C)C3=O (stereo not shown) [Example 78, 4-n-propyl-6-phenyl-11-methyl-2H,6H,12H-benzo[1,2-b:3,4-b′:5,6-b″]-tripyranyl-2,12-dione] | 99 (≈ 246 µM) | > 100 | 187 to 189 |  | 
Cc1c(C)c2c3c(c4c(c2oc1=O)C(=O)CC(C)O4)C=CC(C)(C)O3 (stereo not shown) [Example 2, 3,4,6,6,10-pentamethyl-2H,6H,12H-benzo[1,2-b:3,4-b′:5,6-b″]-tripyranyl-2,12-dione] | 20.3 (≈ 59.7 µM) | 35.2 (≈ 103 µM) | 142 to 144 |  | 
Cc1cc(=O)oc2c3c(c4c(c12)OC(C)(C)C=C4)OC(C)CC3=O (stereo not shown) [Example 1, 4,6,6,10-tetramethyl-2H,6H,12H-benzo[1,2-b:3,4-b′:5,6-b″]-tripyranyl-2,12-dione] | 39.2 (≈ 120 µM) | 59.5 (≈ 182 µM) | 213 to 215 |  | 
CCc1cc(=O)oc2c3c(c4c(c12)OC(CC)C=C4)OC(C)CC3=O (stereo not shown) [Example 53, 10-methyl-4,6-diethyl-2H,6H,12H-benzo[1,2-b:3,4-b′:5,6-b″]-tripyranyl-2,12-dione] | 6.1 (≈ 17.9 µM) | 6.85 (≈ 20.1 µM) | 129 to 131 | < 10 | 
CCCc1cc(=O)oc2c3c(c4c(c12)OC(C)C=C4)OC(C)CC3=O (stereo not shown) [Example 80, 6,10-dimethyl-4-n-propyl-2H,6H,12H-benzo[1,2-b:3,4-b′:5,6-b″]-tripyranyl-2,12-dione] | 3.42 (≈ 10 µM) | 5.46 (≈ 16 µM) | 125 to 127 | < 10 | 
CC1CC(=O)c2c(c3c(c4c(-c5cc(F)c(Cl)nc5Cl)cc(=O)oc24)OC(C)(C)C=C3)O1 (stereo not shown) [Example 25] | 2.86 (≈ 6 µM) | 3.9 (≈ 8.18 µM) | 158 to 160 | < 10 | 
CCCc1cc(=O)oc2c3c(c4c(c12)OC(CC)C=C4)OC(C)CC3=O (stereo not shown) [Example 52, 10-methyl-4-n-propyl-6-ethyl-2H,6H,12H-benzo[1,2-b:3,4-b′:5,6-b″]-tripyranyl-2,12-dione] | 11.8 (≈ 33.2 µM) | 13.4 (≈ 37.8 µM) | 139 to 141 |  | 
C/C=C/C1C=Cc2c3c(c4oc(=O)cc(CCC)c4c2O1)C(=O)CC(C)O3 (stereo not shown) [Example 85, 4-n-propyl-6-propenyl-1-methyl-2H,6H,12H-benzo[1,2-b:3,4-b′:5,6-b″]-tripyranyl-2,12-dione] | 2.08 (≈ 5.68 µM) | 4.86 (≈ 13.3 µM) | 136 to 138 | < 10 | 
CCCc1c(F)c(=O)oc2c3c(c4c(c12)OC(CCC)C=C4)OC(C)CC3=O (stereo not shown) [Example 32, 10-methyl-3-fluoro-4,6-di(-n-propyl)-2H,6H,12H-benzo[1,2-b:3,4-b′:5,6-b″]-tripyranyl-2,12-dione] | 78.3 (≈ 203 µM) | > 100 | 123 to 124 |  | 
CCCc1cc(=O)oc2c3c(c4c(c12)OC(CCC)C=C4)OCC(C)C3=O (stereo not shown) [Example 51] | < 0.2 | 0.496 (≈ 1.35 µM) | 148 to 150 | < 10 | 
CCCc1cc(=O)oc2c3c(c4c(c12)OC(c1ccccc1)C=C4)OC(C)CC3=O (stereo not shown) [Example 41, 10-methyl-4-n-propyl-6-phenyl-2H,6H,12H-benzo[1,2-b:3,4-b′:5,6-b″]-tripyranyl-2,12-dione] | 2.92 (≈ 7.25 µM) | 3.27 (≈ 8.12 µM) | 96 to 99 | < 10 | 
CCCc1c(F)c(=O)oc2c3c(c4c(c12)OC(c1ccccc1)C=C4)OC(C)CC3=O (stereo not shown) [Example 43, 10-methyl-4-n-propyl-6-phenyl-3-fluoro-2H,6H,12H-benzo[1,2-b:3,4-b′:5,6-b″]-tripyranyl-2,12-dione] | 6.42 (≈ 15.3 µM) | 10.8 (≈ 25.7 µM) | 128 to 129 |  | 
CCCc1c(F)c(=O)oc2c3c(c4c(c12)OC(C)(C)C=C4)OC(C)CC3=O (stereo not shown) [Example 31, 6,6,10-trimethyl-3-fluoro-4-n-propyl-2H,6H,12H-benzo[1,2-b:3,4-b′:5,6-b″]-tripyranyl-2,12-dione] |  |  |  |  | inhibition at 1 µM (HIV-1): 45.3%
CCCc1cc(=O)oc2c3c(c4c(c12)OC(C)(C)C=C4)OC(CNS(=O)(=O)c1ccc(NC(C)=O)cc1)CC3=O (stereo not shown) [Example 61, 6,6-dimethyl-4-n-propyl-10-(p-acetylaminophenylsulfonamido)methylene-2H,6H,12H-benzo[1,2-b:3,4-b′:5,6-b″]-tripyranyl-2,12-dione] | 17.2 (≈ 30.4 µM) | > 100 | 127 to 128.5 |  | 
CCCCc1cc(=O)oc2c3c(c4c(c12)OC(CCC)C=C4)OC(C)CC3=O (stereo not shown) [Example 37, 10-methyl-6-n-propyl-4-n-butyl-2H,6H,12H-benzo[1,2-b:3,4-b′:5,6-b″]-tripyranyl-2,12-dione] | 5.33 (≈ 13.9 µM) | 8.36 (≈ 21.9 µM) | 135 to 138 | < 10 | 
CCc1c(F)c(=O)oc2c3c(c4c(c12)OCC(C)=C4)OC(C)CC3=O (stereo not shown) [Example 93, 4-ethyl-3-fluoro-7,10-dimethyl-2H,6H,12H-benzo[1,2-b:3,4-b′:5,6-b″]-tripyranyl-2,12-dione] | 76.2 (≈ 221 µM) | > 100 | 118 to 120 |  | 
CCCc1c(F)c(=O)oc2c3c(c4c(c12)OC(C)C=C4)OC(C)CC3=O (stereo not shown) [Example 84, 6,10-dimethyl-4-n-propyl-3-fluoro-2H,6H,12H-benzo[1,2-b:3,4-b′:5,6-b″]-tripyranyl-2,12-dione] | 17.3 (≈ 48.3 µM) | 27.7 (≈ 77.3 µM) | 150 to 153 |  | 
CCCCC1C=Cc2c3c(c4oc(=O)c(Cl)c(CCC)c4c2O1)C(=O)CC(C)O3 (stereo not shown) [Example 49, 10-methyl-4-n-propyl-3-chloro-6-n-butyl-2H,6H,12H-benzo[1,2-b:3,4-b′:5,6-b″]-tripyranyl-2,12-dione] | 4.62 (≈ 11.1 µM) | 6.4 (≈ 15.3 µM) | 146 to 149 | < 10 | 
CCCc1cc(=O)oc2c(-c3cccn3Cc3ccccn3)c(O)c3c(c12)OC(C)(C)C=C3 [Example 68, 5-hydroxy-6-(1′-(2-pyridyl)methylene-1′H-pyrrolyl-2′-ene)-2,2-dimethyl-10-n-propyl-2H-benzo-[2,3-f]-pyranyl-8-one] | 33 (≈ 74.6 µM) | 44.9 (≈ 101 µM) | 171 to 173 |  | 
CCCc1cc(=O)oc2c3c(c4c(c12)OC(C)(C)C=C4)OC(C)CC3=O (stereo not shown) [Example 11, 6,6,10-trimethyl-4-n-propyl-2H,6H,12H-benzo[1,2-b:3,4-b′:5,6-b″]-tripyranyl-2,12-dione] |  |  |  |  | inhibition at 1 µM (HIV-1): 73.1%
CCCCC1C=Cc2c3c(c4oc(=O)c(F)c(CC)c4c2O1)C(=O)CC(C)O3 (stereo not shown) [Example 40] | 1.58 (≈ 4.1 µM) | 2.47 (≈ 6.39 µM) | 142 to 143 | < 10 | 
CCCc1c(Cl)c(=O)oc2c3c(c4c(c12)OC(CC)C=C4)OC(C)CC3=O (stereo not shown) [Example 54, 10-methyl-4-n-propyl-6-ethyl-3-chloro-2H,6H,12H-benzo[1,2-b:3,4-b′:5,6-b″]-tripyranyl-2,12-dione] | 36.5 (≈ 93.9 µM) | 61.8 (≈ 159 µM) | 145 to 147 |  | 
CCc1c(F)c(=O)oc2c3c(c4c(c12)OC(c1ccccc1)C=C4)OC(C)CC3=O (stereo not shown) [Example 42, 10-methyl-4-ethyl-6-phenyl-3-fluoro-2H,6H,12H-benzo[1,2-b:3,4-b′:5,6-b″]-tripyranyl-2,12-dione] | 5.56 (≈ 13.7 µM) | 6.81 (≈ 16.7 µM) | 109 to 111 | < 10 | 
